Experiments:
[1] = target: serotonin transporter (SERT) (Rattus norvegicus (Rat), UniProt P31652); test: [3H]serotonin (5-HT) uptake inhibition in rat brain synaptosomes; format: biochemical; conditions: mean ± S.D.; n = 3; read-out: SERT Uptake Emax
[2] = target: norepinephrine transporter (NET) (Rattus norvegicus, UniProt Q63380); test: [3H]norepinephrine (NE) uptake inhibition in rat brain synaptosomes; format: biochemical
[3] = target: T1, DAT (Rattus norvegicus (Rat), UniProt P23977); test: Inhibition of [3H]WIN35428 binding to rat caudate DAT; conditions: [3H]WIN35428
T1 sequence (P23977 whole entry): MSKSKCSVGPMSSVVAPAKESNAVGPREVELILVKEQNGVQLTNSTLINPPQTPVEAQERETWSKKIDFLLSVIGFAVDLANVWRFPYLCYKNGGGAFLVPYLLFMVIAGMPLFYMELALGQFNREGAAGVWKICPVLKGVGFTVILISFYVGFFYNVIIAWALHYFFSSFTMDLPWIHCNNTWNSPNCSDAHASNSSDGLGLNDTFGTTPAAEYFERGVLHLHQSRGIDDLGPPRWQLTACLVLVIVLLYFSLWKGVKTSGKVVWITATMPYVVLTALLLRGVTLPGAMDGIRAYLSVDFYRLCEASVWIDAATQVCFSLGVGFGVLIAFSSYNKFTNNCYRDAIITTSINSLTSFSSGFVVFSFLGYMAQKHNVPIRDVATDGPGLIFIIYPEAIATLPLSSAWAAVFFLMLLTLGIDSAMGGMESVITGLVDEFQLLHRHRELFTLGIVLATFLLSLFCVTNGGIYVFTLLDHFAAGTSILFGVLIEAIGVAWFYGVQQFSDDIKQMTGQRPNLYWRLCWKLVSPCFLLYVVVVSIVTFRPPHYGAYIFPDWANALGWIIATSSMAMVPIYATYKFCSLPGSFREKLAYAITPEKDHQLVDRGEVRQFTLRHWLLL
Description: All of the test compounds were synthesized as described herein. […] The data from three experiments were pooled and fit to a dose-response curve equation (using KaleidaGraph; Synergy Software, Reading, Pa.) to yield an Emax and IC50 value. […] Selected compounds were also tested for their ability to inhibit [^3H]WIN35428 binding to rat caudate DAT.

[4] = target: T2, dopamine transporter (DAT) (Rattus norvegicus (Rat), UniProt P23977); test: Dopamine transporter-mediated [3H]MPP+ release (d-amphetamine-induced, shift experiments) in rat caudate synaptosomes; format: biochemical
T2 sequence (P23977 whole entry): as above

[5] = target: T1, DAT; test: d-amphetamine-induced, DAT-mediated [3H]DA release (shift experiments); format: biochemical
[6] = target: T2, dopamine transporter (DAT); test: [3H]dopamine (DA) uptake inhibition in rat brain (caudate) synaptosomes; format: biochemical

norepinephrine transporter (NET), sequence (Q63380 1-617): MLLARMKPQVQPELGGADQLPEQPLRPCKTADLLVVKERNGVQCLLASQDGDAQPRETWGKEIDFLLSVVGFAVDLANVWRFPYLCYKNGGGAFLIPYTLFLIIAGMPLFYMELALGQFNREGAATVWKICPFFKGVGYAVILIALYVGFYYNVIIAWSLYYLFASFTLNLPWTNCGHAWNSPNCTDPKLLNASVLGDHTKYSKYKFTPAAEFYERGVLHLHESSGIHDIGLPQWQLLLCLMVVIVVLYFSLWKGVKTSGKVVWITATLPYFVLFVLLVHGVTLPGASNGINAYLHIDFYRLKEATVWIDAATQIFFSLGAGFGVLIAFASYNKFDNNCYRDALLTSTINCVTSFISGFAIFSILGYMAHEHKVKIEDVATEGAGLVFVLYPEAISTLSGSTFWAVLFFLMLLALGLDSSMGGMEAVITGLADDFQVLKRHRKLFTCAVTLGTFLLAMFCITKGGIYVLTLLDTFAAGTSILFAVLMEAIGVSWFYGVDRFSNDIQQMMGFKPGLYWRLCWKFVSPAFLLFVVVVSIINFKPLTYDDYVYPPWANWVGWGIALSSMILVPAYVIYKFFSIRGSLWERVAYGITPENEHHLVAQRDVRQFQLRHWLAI
serotonin transporter (SERT), sequence (P31652 whole entry): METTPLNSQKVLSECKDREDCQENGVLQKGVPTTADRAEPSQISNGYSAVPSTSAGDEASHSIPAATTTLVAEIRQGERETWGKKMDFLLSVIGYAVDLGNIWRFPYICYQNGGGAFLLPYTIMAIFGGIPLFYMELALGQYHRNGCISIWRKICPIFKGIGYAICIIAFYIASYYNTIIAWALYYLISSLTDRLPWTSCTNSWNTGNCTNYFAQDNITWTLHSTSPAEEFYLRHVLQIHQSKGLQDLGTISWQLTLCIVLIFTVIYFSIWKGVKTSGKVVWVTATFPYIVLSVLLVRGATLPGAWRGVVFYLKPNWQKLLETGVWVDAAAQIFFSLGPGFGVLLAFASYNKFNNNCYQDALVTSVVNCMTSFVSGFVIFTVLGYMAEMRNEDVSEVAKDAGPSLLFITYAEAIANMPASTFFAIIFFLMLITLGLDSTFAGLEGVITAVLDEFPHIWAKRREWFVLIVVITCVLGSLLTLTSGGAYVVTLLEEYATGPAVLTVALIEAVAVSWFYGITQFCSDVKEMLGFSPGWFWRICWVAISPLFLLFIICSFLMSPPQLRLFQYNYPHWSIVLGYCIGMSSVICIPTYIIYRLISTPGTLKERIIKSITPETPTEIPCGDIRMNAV

In the case of `c1ccc(C(CNc2nc(-c3ccc4nccn4c3)nc3ccccc23)c2ccccc2)cc1` [SRI-29574], the Emax [1] is reported as 52 ± 2%, the Emax ([2]; read-out: NET Uptake Emax) is reported as 72 ± 4% and the IC50 ([2]; read-out: NET Uptake IC50, mean ± S.D., n = 3) is reported as 52 ± 15 nM. The “Inhibition of DAT binding, in words” value [3] was “inactive”, the “DAT Binding Emax” value ([3]; mean ± S.D., n = 3) was “Inactive” and the “DAT Binding IC50” value ([3]; mean ± S.D., n = 3, unit as printed in head (text gives 1100 nM where table prints 1.1)) was “Inactive”. The “Apparent Kc” value ([4]; [3H]MPP+ release, [Blocker]/((EC50-2/EC50-1) − 1)) was -368 nM, the “Effect on d-amphetamine-induced DAT-mediated [3H]MPP+ release curve, in words” value ([4]; blocking concentration ~25 times DAT uptake IC50) was “increased EC50 and decreased Emax” and the Emax ([4]; read-out: d-Amphetamine Emax in presence of blocker, [3H]MPP+ release, blocker concentration per row, mean ± S.D., n = 3) was 103 ± 3%. The “Apparent Kc” value ([5]; [Blocker]/((EC50-2/EC50-1) − 1)) was -239 nM, the Emax ([5]; read-out: d-Amphetamine Emax in presence of blocker, blocker concentration per row, mean ± S.D., n = 3) was 95 ± 2% and the “Efficacy of [3H]DA (DAT) uptake inhibition, in words” value [6] was “partially inhibited”. It also gave an Emax ([6]; mean ± S.D., n = 3, read-out: DAT Uptake Emax) of 68 ± 2% and an Emax ([6]; values in Table 9, read-out: Emax for DAT Uptake Inhibition) of 68%.

Source: patent US10087148B2, “Quinazolines as biogenic amine transport modulators” (THE UNITED STATES OF AMERICA AS REPRESENTED BY THE …, priority 2014, dated 2018)
